In patent US5344831A, “Diazabicyclo derivatives” (Nisshin Flour Milling Co., Ltd., priority 1992, dated 1994):
Structures can show the parent of a compound that is named as a salt.

Tests used:
5-HT3 receptors = experiment: antagonism of the von Bezold-Jarisch reflex (bradycardia) induced by 5-HT in the anaesthetised rat; format: in vivo; conditions: 5-HT 30 μg/kg given 5 min later, tested as hydrochloride salts
Description: Temporary bradycardia is induced by administration of 5-HT (serotonin) to anaesthetised rats via jugular vein (yon Bezold Jarisch Reflex) (A. S. Paintal, Physiol. Rev., 53, 159-210 (1973 ) ).
The compounds of the present invention were evaluated for antagonism of the yon Bezold-Jarisch reflex induced by 5-HT in the anaesthetised rat according to the following method.
Rats were anaesthetised with urethane (1 g/kg, intraperitoneally ) and blood pressure and heart rate recorded from left femoral artery. Percent inhibition was calculated from bradycardia induced by 5-HT (30 μg/kg ) given 5 minutes following intrajugular administration of a compound of the invent ion, taking the bradycardia induced by the intrajugular administration of 5-HT. The compounds of the present invention were tested in the form of their hydrochloride salts.

nausea and vomiting = conditions: intravenous administration at high dose; Gralla et al, N. Engl. J. Med. 305, 905-909 (1981); cited from earlier work

Structure (SMILES)	Percent Inhibition (5-HT3 receptors; 0.1 μg/kg i.v.) [%]	Percent Inhibition (5-HT3 receptors; 1.0 μg/kg i.v.) [%]	prevention of nausea and vomiting (nausea and vomiting)	Percent Inhibition (5-HT3 receptors; 0.01 μg/kg i.v.) [%]	Percent Inhibition (5-HT3 receptors; 10 μg/kg i.v.) [%]
C#CCn1nc(C(=O)N[C@@H]2C[C@@H]3CN(C)C[C@H](C2)N3C)c2ccccc21 [Example 7, endo-3,9-Dimethyl-3,9-diazabicyclo[3.3-1]non-7-Yl 1-(2propynyl) indazole-3-carboxamide]	30	83			
CN1C[C@H]2C[C@@H](NC(=O)c3nn(Cc4ccc(C(C)(C)C)cc4)c4ccccc34)C[C@@H](C1)N2C [Example 11, endo-3,9-Dimethyl-3,9-diazabicyclo[3.3.1]non-7-yl 1-(4-tert-butylbenzyl) indazole-3-carboxamide]	39	53			
CN1C[C@H]2C[C@@H](NC(=O)c3nn(CC#N)c4ccccc34)C[C@@H](C1)N2C [Example 10, endo-3,9-Dimethyl-3,9-diazabicyclo[3.3.1]non-7-yl 1-cyanomethylindazole-3-carboxamide]	37	100			
CN1C[C@H]2C[C@@H](NC(=O)c3nn(Cc4ccccn4)c4ccccc34)C[C@@H](C1)N2C [Example 15, endo-3,9-Dimethyl-3,9-diazabicyclo[3.3.1]non-7-yl 1-(2-pyridylmethyl) indazole-3-carboxamide]	47				
CCN(CC)CCNC(=O)c1cc(Cl)c(N)cc1OC [metoclopramide]			effectively prevented		
CN1C[C@H]2C[C@@H](NC(=O)c3nn(Cc4ccc([N+](=O)[O-])cc4)c4ccccc34)C[C@@H](C1)N2C [Example 9, endo-3,9-Dimethyl-3,9-diazabicyclo[3.3.1]non-7-yl 1-(4nitrobenzyl) indazole-3-carboxamide]	41	96		14	
CN1[C@@H]2CNC[C@H]1C[C@@H](NC(=O)c1n[nH]c3ccccc13)C2 [Example 23, endo-9-Methyl-3,9-diazabicyclo[3.3.1]non-7-yl 1H-indazole-3-carboxamide]	28	82			
CC(O)Cn1nc(C(=O)N[C@@H]2C[C@@H]3CN(C)C[C@H](C2)N3C)c2ccccc21 (stereo partly drawn) [Example 19, endo-3,9-Dimethyl-3,9-diazabicyclo[3.3.1]non-7-yl 1-(2hydroxypropyl) indazole-3-carboxamide]	59			40	
CN1C[C@H]2C[C@@H](NC(=O)c3nn(Cc4nc(N)nc(N)n4)c4ccccc34)C[C@@H](C1)N2C [Example 21]	38	85		21	
C=CCn1nc(C(=O)N[C@@H]2C[C@@H]3CN(C)C[C@H](C2)N3C)c2ccccc21 [Example 2, endo-3,9-Dimethyl-3,9-diazabicyclo[3.3.1]non-7-yl 1-allylindazole-3-carboxamide hydrochloride]	86			11	
CN1C[C@H]2C[C@@H](NC(=O)c3nn(CC4CC4)c4ccccc34)C[C@@H](C1)N2C [Example 4]	60				
CN1C[C@H]2C[C@@H](NC(=O)c3nn(Cc4cccc(Cl)c4)c4ccccc34)C[C@@H](C1)N2C [Example 13, endo-3,9-Dimethyl-3,9-diazabicyclo[3.3.1]non-7-yl 1-(3-chlorobenzyl)indazole-3-carboxamide]	27	71			
CN1C[C@H]2C[C@@H](NC(=O)c3nn(Cc4ccccc4[N+](=O)[O-])c4ccccc34)C[C@@H](C1)N2C [Example 14, endo-3,9-Dimethyl-3,9-diazabicyclo[3.3.1]non-7-yl 1-(2-nitrobenzyl) indazole-3-carboxamide]	18	97			
CN1C[C@H]2C[C@@H](NC(=O)c3n[nH]c4ccccc34)C[C@@H](C1)N2 [Example 25, endo-3-Methyl-3,9-diazabicyclo[3.3.1]non-7-yl 1H-indazole-3-carboxamide]	21				
CCOCCn1nc(C(=O)N[C@@H]2C[C@@H]3CN(C)C[C@H](C2)N3C)c2ccccc21 [Example 17, endo-3,9-Dimethyl-3,9-diazabicyclo[3.3.1]non-7-yl 1-ethoxyethylindazole-3-carboxamide]	53			33	
CC(=O)Cn1nc(C(=O)N[C@@H]2C[C@@H]3CN(C)C[C@H](C2)N3C)c2ccccc21 [Example 12, endo-3,9-Dimethyl-3,9-diazabicyclo[3.3.1]non-7-yl 1-(2-oxopropyl) indazole-3-carboxamide]	57	72		45	
CN1C[C@H]2C[C@@H](NC(=O)c3n[nH]c4ccccc34)C[C@@H](C1)N2Cc1ccccc1 [Example 24, endo-9-Benzyl-3-methyl-3,9-diazabicyclo[3.3.1]non-7-yl 1H-indazole-3-carboxamide]	35				
CC(=O)N1C[C@H]2C[C@@H](NC(=O)c3n[nH]c4ccccc34)C[C@@H](C1)N2C [Example 28, endo-3-Acetyl-9-methyl-3,9-diazabicyclo[3.3.1]non-7-yl 1H-indazola-3-carboxamide]	23	71			
CN1[C@@H]2C[C@@H](NC(=O)c3n[nH]c4ccccc34)C[C@H]1CN(Cc1ccccc1)C2 [Example 22, endo-3-Benzyl-9-methyl-3,9-diazabicyclo[3.3.1]non-7-yl 1H-indazole-3-carboxamide]	48	87			
CC(C)=CCn1nc(C(=O)N[C@@H]2C[C@@H]3CN(C)C[C@H](C2)N3C)c2ccccc21 [Example 8, endo-3,9-Dimethyl-3,9-diazabicyclo[3.3.1]non-7-yl 1-(3-methyl-2-butenyl) indazole-3-carboxamide]	48	100			
CN1C[C@H]2C[C@@H](NC(=O)c3nn(CC4CCCCC4)c4ccccc34)C[C@@H](C1)N2C [Example 3, endo-3,9-Dimethyl-3,9-diazabicyclo[3.3.1]non-7-yl 1-cyclohexylmethylindazole-3-carboxamide]	13	70			
C=CCN1C[C@H]2C[C@@H](NC(=O)c3n[nH]c4ccccc34)C[C@@H](C1)N2C [Example 26, endo-3-Allyl-9-methyl-3,9-diazabicyclo[3.3.1]non-7-yl 1H-indazole-3-carboxamide]	38				
CCOCCN1C[C@H]2C[C@@H](NC(=O)c3n[nH]c4ccccc34)C[C@@H](C1)N2C [Example 30, endo-3-(2-Ethoxyethyl)-9-methyl-3,9-diazabicyclo[3.3.1]non-7-yl 1H-indazole-3-carboxamide]	52	100			
CC(C)COC(=O)n1nc(C(=O)N[C@@H]2C[C@@H]3CN(C)C[C@H](C2)N3C)c2ccccc21 [Example 18, endo-3,9-Dimethyl-3,9-diazabicyclo[3.3.1]non-7-yl 1-isobutoxycarbonylindazole-3-carboxamide]	23	53			
C=CCCCCCCn1nc(C(=O)N[C@@H]2C[C@@H]3CN(C)C[C@H](C2)N3C)c2ccccc21 [Example 6, endo-3,9-Dimethyl-3,9-diazabicyclo[3.3.1]non-7-yl 1-(7octenyl) indazole-3-carboxamide]	19	35			87
CN1[C@@H]2C[C@@H](NC(=O)c3n[nH]c4ccccc34)C[C@H]1CN(Cc1ccc(F)cc1)C2 [Example 27, endo-3-(4-Fluorobenzyl)-9-methyl-3,9-diazabicyclo[3.3.1]non-7-yl 1H-indazole-3-carboxamide]	75	98			
CC(C)CN1C[C@H]2C[C@@H](NC(=O)c3n[nH]c4ccccc34)C[C@@H](C1)N2C [Example 29, endo-3-Isobutyl-9-methyl-3,9-diazabicyclo[3.3.1]non-7-yl 1H-indazole-3-carboxamide]	81			27	
COC(=O)Cn1nc(C(=O)N[C@@H]2C[C@@H]3CN(C)C[C@H](C2)N3C)c2ccccc21 [Example 16, endo-3,9-Dimethyl-3,9-diazabicyclo[3.3.1]non-7-yl 1-methoxycarbonylmethylindazole-3-carboxamide]	34				88
CN1C[C@H]2C[C@@H](NC(=O)c3nn(Cc4ccc(N)cc4)c4ccccc34)C[C@@H](C1)N2C [Example 20, endo-3,9-Dimethyl-3,9-diazabicyclo[3.3.1]non-7-yl 1-(4aminobenzyl) indazole-3-carboxamide]	73			51	
COc1ccc(Cn2nc(C(=O)N[C@@H]3C[C@@H]4CN(C)C[C@H](C3)N4C)c3ccccc32)cc1 [Example 5]	29	44			91
